# Data: ChEMBL document CHEMBL4665834 (J Med Chem, 2020)
# Columns and labels:
# Homo sapiens [1] = species: Homo sapiens; assay: Selectivity ratio of IC50 for displacement of [3H]PGD2 from full-length recombinant human IP receptor expressed in HEK293 cell membranes to IC50 for displacement of [3H]PGF2alpha from full-length recombinant human FP receptor expressed in HEK293 cell membranes
# Homo sapiens [2] = species: Homo sapiens; assay: Selectivity ratio of IC50 for displacement of [3H]prostaglandin E2 from full-length recombinant human EP3 receptor expressed in HEK293 cell membranes to IC50 for displacement of [3H]PGF2alpha from full-length recombinant human FP receptor expressed in HEK293 cell membranes
# Homo sapiens [3] = species: Homo sapiens; assay: Selectivity ratio of IC50 for displacement of [3H]prostaglandin E2 from full-length recombinant human EP4 receptor expressed in Chem-1 cell membranes to IC50 for displacement of [3H]PGF2alpha from full-length recombinant human FP receptor expressed in HEK293 cell membranes
# Homo sapiens [4] = species: Homo sapiens; assay: Selectivity ratio of IC50 for displacement of [3H]prostaglandin E2 from full-length recombinant human EP1 receptor expressed in HEK293 cell membranes to IC50 for displacement of [3H]PGF2alpha from full-length recombinant human FP receptor expressed in HEK293 cell membranes
# Homo sapiens [5] = species: Homo sapiens; assay: Selectivity ratio of IC50 for displacement of [3H]PGD2 from full-length recombinant human DP1 receptor expressed in Chem-1 cell membranes to IC50 for displacement of [3H]PGF2alpha from full-length recombinant human FP receptor expressed in HEK293 cell membranes
# Homo sapiens [6] = species: Homo sapiens; assay: Selectivity ratio of IC50 for displacement of [3H]prostaglandin E2 from full-length recombinant human EP2 receptor expressed in HEK293 cell membranes to IC50 for displacement of [3H]PGF2alpha from full-length recombinant human FP receptor expressed in HEK293 cell membranes
# [7] = Clearance in Wistar rat at 0.3 to 1 mg/kg, iv administered as bolus dose or 15 mins infusion by LC-MS/MS analysis; type: ADME, organism-based; conditions: in vivo, dose 0.3-1 mg/kg; for clearance: Wistar; for CL: 0.25 h
# Cytochrome P450 3A4 = Cytochrome P450 3A4 (Homo sapiens, UniProt P08684); assay: Inhibition of CYP3A4 in human liver microsomes using midazolam as substrate incubated for 10 mins in presence of NADPH generating system by LC-MS/MS analysis
# [8] = Lipophilicity, log D of compound at pH 7.5 by HPLC analysis; conditions: buffer
# [9] = target: Prostaglandin F2-alpha receptor (Homo sapiens, UniProt P43088); assay: Antagonist activity at human FPR expressed in human Chem-1 cells assessed as inhibition of PGF2alpha-induced calcium flux preincubated for 10 mins followed by PGF2alpha stimulation and measured for 120 secs by fluo-8 AM dye based fluorescence assay; type: functional, cell-based
# [10] = Maximum oral bioavailability in rat hepatocytes based well stirred liver model at 1 uM measured after 2 to 90 mins by LC-MS/MS analysis; type: ADME, Hepatocyte; conditions: time 2-90 min, read-out: Fmax
# Chain of Prostaglandin F2-alpha receptor (P43088 whole entry): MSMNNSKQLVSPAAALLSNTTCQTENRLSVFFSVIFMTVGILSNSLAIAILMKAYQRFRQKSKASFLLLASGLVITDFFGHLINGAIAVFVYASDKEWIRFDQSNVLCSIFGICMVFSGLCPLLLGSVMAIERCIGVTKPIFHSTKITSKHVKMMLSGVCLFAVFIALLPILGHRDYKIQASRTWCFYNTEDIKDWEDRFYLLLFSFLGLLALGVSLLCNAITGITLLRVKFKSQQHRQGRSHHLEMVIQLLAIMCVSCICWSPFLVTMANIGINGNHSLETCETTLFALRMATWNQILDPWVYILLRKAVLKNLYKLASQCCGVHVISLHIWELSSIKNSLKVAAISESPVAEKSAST
# Chain of Cytochrome P450 3A4 (P08684 whole entry): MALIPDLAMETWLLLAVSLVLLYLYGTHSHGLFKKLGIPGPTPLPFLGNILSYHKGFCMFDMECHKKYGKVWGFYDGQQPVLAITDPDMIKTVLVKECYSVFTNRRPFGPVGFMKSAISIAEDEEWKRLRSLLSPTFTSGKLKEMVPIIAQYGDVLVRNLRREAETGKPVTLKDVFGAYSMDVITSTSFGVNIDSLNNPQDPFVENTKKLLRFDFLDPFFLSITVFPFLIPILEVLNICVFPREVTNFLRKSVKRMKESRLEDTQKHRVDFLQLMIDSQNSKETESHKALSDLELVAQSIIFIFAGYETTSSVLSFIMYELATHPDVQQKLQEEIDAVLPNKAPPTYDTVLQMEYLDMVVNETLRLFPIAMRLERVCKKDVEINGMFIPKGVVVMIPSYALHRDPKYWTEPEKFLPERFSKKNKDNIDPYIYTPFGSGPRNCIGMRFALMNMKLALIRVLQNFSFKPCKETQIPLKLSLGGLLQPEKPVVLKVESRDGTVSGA
clearance [7] [mL/min/kg],IC50 (Cytochrome P450 3A4) [µM],logD [8],Compound,Ratio IC50 (Homo sapiens [1]),Ratio IC50 (Homo sapiens [2]),Ratio IC50 (Homo sapiens [3]),Ratio IC50 (Homo sapiens [4]),Ratio IC50 (Homo sapiens [5]),Ratio IC50 (Homo sapiens [6]),other results
43.3,5,–,"Cc1c(-c2ccccc2)nc2ccc(Br)cc2c1C(=O)NCC(CCC(=O)O)c1c(F)ccc(F)c1Cl (single isomer, unassigned; (-))",–,–,–,–,–,–,–
–,> 20,1.9,Cc1c(-c2ccccc2)nc2ccc(Cl)cc2c1C(=O)Nc1ccc(C(=O)O)cc1F,–,–,17,–,–,–,–
23.3,> 20,1.9,Cc1c(-c2ccccc2)nc2ccc(Br)cc2c1C(=O)Nc1ccc(C(=O)O)cc1,> 110,> 110,10,> 110,> 110,> 110,IC50 [9]: 0.15 µM
–,> 20,1.9,COc1ccc(C(CNC(=O)c2c(C)c(-c3ccccc3)nc3ccc(Br)cc23)CC(=O)O)cc1 (racemic),–,–,> 63,–,–,–,IC50 [9]: 1.1 µM
–,20,2.3,"Cc1c(-c2ccccc2)nc2ccc(Br)cc2c1C(=O)NCC(CCCC(=O)O)c1ccccc1Cl (single isomer, unassigned; (+))",–,–,–,–,–,–,–
–,–,2.1,O=C(O)c1ccc(NC(=O)c2c(Cl)c(-c3ccccc3)nc3ccc(Br)cc23)c(F)c1,> 38,> 38,14,> 38,> 38,> 38,–
–,> 20,1.4,Cc1c(C(=O)Nc2ccc(C(=O)O)cc2F)c2cc(Br)ccc2[n+]([O-])c1-c1ccccc1,> 91,> 91,53,> 91,> 91,> 91,–
46.7,> 20,2,"COc1ccccc1C(CNC(=O)c1c(C)c(-c2ccccc2)nc2ccc(Br)cc12)CC(=O)O (single isomer, unassigned; (+))",–,–,–,–,–,–,–
20,> 20,2.2,Cc1c(-c2ccccc2)nc2ccc(Br)cc2c1COc1ccc(C(=O)O)cc1F,–,–,20,–,–,–,IC50 [9]: 0.25 µM
–,> 20,2.2,"Cc1c(-c2ccccc2)nc2ccc(Br)cc2c1C(=O)NCC(CCC(=O)O)c1c(F)ccc(F)c1Cl (single isomer, unassigned; (+))",–,–,–,–,–,–,–
11.7,–,–,Cc1c(-c2ccccc2)nc2ccc(Br)cc2c1CNc1ccc(C(=O)O)cc1F,–,–,–,–,–,–,IC50 [9]: 0.025 µM
10,–,–,Cc1c(-c2ccccc2)cc2ccc(Br)cc2c1C(=O)Nc1ccc(C(=O)O)cc1F,–,–,–,–,–,–,IC50 [9]: 0.013 µM
21.7,> 20,2,Cc1c(-c2ccccc2)nc2ccc(I)cc2c1C(=O)Nc1ccc(C(=O)O)cc1F,> 86,> 86,15,> 86,> 86,> 86,–
–,> 20,2,COc1cccc(C(CNC(=O)c2c(C)c(-c3ccccc3)nc3ccc(Br)cc23)CC(=O)O)c1 (racemic),–,–,–,–,–,–,–
20,> 20,2.1,Cc1c(-c2ccccc2)nc2ccc(C(C)(C)C)cc2c1C(=O)Nc1ccc(C(=O)O)cc1F,> 87,> 87,170,> 87,> 87,> 87,–
40,> 20,2.1,Cc1c(-c2ccccc2)nc2ccc(C(F)(F)F)cc2c1C(=O)Nc1ccc(C(=O)O)cc1F,> 64,> 64,13,> 64,> 64,> 64,–
–,–,2.1,O=C(O)c1ccc(NC(=O)c2c(C3CC3)c(-c3ccccc3)nc3ccc(Br)cc23)c(F)c1,–,–,8.8,–,–,–,–
–,–,3.1,Cc1c(-c2ccccc2)nc2ccc(Br)cc2c1C(=O)NCC(C)c1ccccn1 (racemic),–,–,–,–,–,–,IC50 [9]: 0.19 µM; Fh at 1 µM [10]: 24%
–,13,–,Cc1c(-c2ccccc2)nc2ccc(Br)cc2c1C(=O)NCC(CC(=O)O)c1ccccc1Cl (stereo in doubt; 34),–,–,–,–,–,–,CL [7]: 18.3 mL/min/kg

# More lines, now with the values behind:
Compound,clearance [7] [mL/min/kg],IC50 (Cytochrome P450 3A4) [µM],logD [8],Ratio IC50 (Homo sapiens [1]),Ratio IC50 (Homo sapiens [2]),Ratio IC50 (Homo sapiens [3]),Ratio IC50 (Homo sapiens [4]),Ratio IC50 (Homo sapiens [5]),Ratio IC50 (Homo sapiens [6]),other results
"Cc1c(-c2ccccc2)nc2ccc(Br)cc2c1C(=O)NCC(CCC(=O)O)c1ccccc1Cl (single isomer, unassigned; (+))",–,–,–,> 6300,> 6300,> 6300,> 6300,> 6300,> 6300,–
"Cc1c(N2CCCCC2)nc2ccc(Br)cc2c1C(=O)NCC(CCC(=O)O)c1ccccc1Cl (single isomer, unassigned; (-))",–,–,–,–,–,–,–,–,–,CL [7]: 25 mL/min/kg
"CCC1CCCN(c2nc3ccc(Br)cc3c(C(=O)NCC(CCC(=O)O)c3ccccc3Cl)c2C)C1 (single isomer, unassigned; 52) [listing 1 of 2 here]",–,5,3.3,–,–,–,–,–,–,CL [7]: 48.3 mL/min/kg; IC50 [9]: 0.00053 µM
"CCC1CCCN(c2nc3ccc(Br)cc3c(C(=O)NCC(CCC(=O)O)c3ccccc3Cl)c2C)C1 (single isomer, unassigned; 53) [listing 1 of 2 here]",–,–,–,> 580,> 580,> 580,> 580,> 580,> 580,–
"CCC1CCCN(c2nc3ccc(Br)cc3c(C(=O)NCC(CCC(=O)O)c3ccccc3Cl)c2C)C1 (single isomer, unassigned; 55) [listing 1 of 2 here]",–,–,–,> 300,> 300,> 300,> 300,> 300,> 300,–
"CCC1CCCN(c2nc3ccc(Br)cc3c(C(=O)NCC(CCC(=O)O)c3ccccc3Cl)c2C)C1 (single isomer, unassigned; 55) [listing 2 of 2 here]",–,5,–,–,–,–,–,–,–,IC50 [9]: 0.0076 µM
Cc1c(-c2ccccc2)nc2ccc(Br)cc2c1C(=O)NC(C)Cc1ccccn1 (racemic),–,–,–,–,–,–,–,–,–,IC50 [9]: 0.5 µM
"CCC1CCCN(c2nc3ccc(Br)cc3c(C(=O)NCC(CCC(=O)O)c3ccccc3Cl)c2C)C1 (single isomer, unassigned; 54) [listing 1 of 2 here]",–,2,–,–,–,–,–,–,–,–
"Cc1c(-c2ccccc2)nc2ccc(Br)cc2c1C(=O)NCC(CCC(=O)O)c1ccccc1Cl (single isomer, unassigned; (-)) [listing 1 of 2 here]",–,–,–,> 8200,> 8200,> 8200,> 8200,> 8200,> 8200,–
Cc1c(-c2ccccc2)nc2ccc(Br)cc2c1C(=O)N(C)CCc1ccccn1,–,–,–,–,–,–,–,–,–,IC50 [9]: 15 µM
Cc1c(N2CC(F)(F)C2)nc2ccc(Br)cc2c1C(=O)NCC(CCC(=O)O)c1ccccc1Cl (racemic),–,> 20,2.6,–,–,> 220,–,–,–,–
Cc1c(-c2ccccc2)nc2ccc(Br)cc2c1C(=O)Nc1ccc(C(=O)O)cc1F,–,–,–,> 76,> 76,16,> 76,> 76,> 76,–
"CCC1CCCN(c2nc3ccc(Br)cc3c(C(=O)NCC(CCC(=O)O)c3ccccc3Cl)c2C)C1 (single isomer, unassigned; 53) [listing 2 of 2 here]",–,10,–,–,–,–,–,–,–,CL [7]: 21.7 mL/min/kg
"COc1ccccc1C(C)CNC(=O)c1c(C)c(-c2ccccc2)nc2ccc(Br)cc12 (single isomer, unassigned; (+))",–,–,–,–,–,–,–,–,–,IC50 [9]: 0.25 µM
"CCC1CCCN(c2nc3ccc(Br)cc3c(C(=O)NCC(CCC(=O)O)c3ccccc3Cl)c2C)C1 (single isomer, unassigned; 54) [listing 2 of 2 here]",–,–,–,> 180,> 180,> 180,> 180,> 180,> 180,–
"Cc1c(N2CCCCC2)nc2ccc(Br)cc2c1C(=O)NCC(CCC(=O)O)c1c(F)ccc(F)c1Cl (single isomer, unassigned; (-))",38.3,–,–,–,–,–,–,–,–,–
Cc1c(-c2ccccc2)nc2ccc(Br)cc2c1C(=O)NCCc1ccccn1,–,–,–,–,–,–,–,–,–,IC50 [9]: 0.2 µM; Fh at 1 µM [10]: 7%
Cc1c(N2CCCCC2)nc2ccc(Br)cc2c1C(=O)NCC(CCC(=O)O)c1ccccc1Cl (stereo in doubt; 48),16.7,–,–,–,–,–,–,–,–,–
"CCC1CCCN(c2nc3ccc(Br)cc3c(C(=O)NCC(CCC(=O)O)c3ccccc3Cl)c2C)C1 (single isomer, unassigned; 52) [listing 2 of 2 here]",–,–,–,> 180,> 180,> 180,> 180,> 180,> 180,–
"Cc1c(-c2ccccc2)nc2ccc(Br)cc2c1C(=O)NCC(CCC(=O)O)c1ccccc1Cl (single isomer, unassigned; (-)) [listing 2 of 2 here]",–,–,–,–,–,–,–,–,–,CL [7]: 50 mL/min/kg
Cc1c(N2CCCC2)nc2ccc(Br)cc2c1C(=O)NC[C@@H](CCC(=O)O)c1ccccc1Cl,20,> 20,2.3,–,–,–,–,–,–,–
"Cc1c(N2CCCCCC2)nc2ccc(Br)cc2c1C(=O)NCC(CCC(=O)O)c1ccccc1Cl (single isomer, unassigned; (+))",21.7,–,–,–,–,–,–,–,–,–
